Measurements taken from patent publication US9243272B2, “Enzyme preparation containing thermostable DNA polymerase, method for producing same, and method for detecting subject organism to be detected” (HOKKAIDO MITSUI CHEMICALS INC., priority 2009, dated 2016).

How the values were obtained:
[1] = test system: Bacillus cereus; assay: Rapid liquid phase drug sensitivity test, enrichment rate by real-time PCR (e-DNAP, non-display method); format: cell-based; conditions: 10 μg/mL; four hours after culture; enrichment rate without antibiotic agent defined as 100%
Procedure: (§1) In current drug sensitivity tests, it generally takes several days to obtain results. However, when the highly sensitive quantification method in accordance with the present invention is applied, results can be obtained in only four to six hours. […] Accordingly, a sensitive test must be started once culture was carried out, so that it takes at least one day to obtain a result. An equal amount of each sample (for example, blood of septicemia) was infused into a liquid medium (BHI: Brain Heart Infusion), each sample medium was collected before culture, two hours after the culture, and four hours after the culture under the condition in which an antibiotic agent was added or not added, cells were subjected to centrifugation and pelletizing so as to obtain DNA, respectively. Furthermore, it is desirable that extraction of DNA is carried out by using an automatic nucleic acid extraction device. A real-time PCR reagent for detecting bacteria, conditions and the primer constitution were the same as in Example 2. When calculation is carried out when the quantification result before culture is defined as 0 and the quantification result two hours after and four hours after culture in which an antibiotic agent was not added is respectively defined as 100 (an enrichment rate when an antibiotic agent was not added is defined as 100%), the enrichment rate was calculated two hours after and four hours after the culture in which an antibiotic agent was added. For example, the amount of bacteria/fungi before culture is […], the amount of bacteria two hours after culture in which an antibiotic agent is not added is […], and the amount two hours after culture in which an antibiotic agent is added is […], the enrichment rate two hours after an antibiotic agent is added can be calculated by the following formula: Enrichment rate two hours after an antibiotic agent is added=[…])×100 (%) Alternatively, instead of comparing the enrichment rates, the amounts […] be compared directly. […]

[2] = test system: Staphylococcus epidermidis; assay: Rapid liquid phase drug sensitivity test, bacteria quantified by real-time PCR (e-DNAP, non-display method); format: cell-based; conditions: 10 μg/mL; two hours and four hours after culture
Procedure: as §1, with “An equal amount of each sample (for example, blood of septicemia) was infused into a liquid medium (BHI: Brain Heart Infusion), each sample medium was collected before culture, two hours after the culture, and four hours after the culture under the condition in which an antibiotic agent was added or not added, cells were subjected to centrifugation and pelletizing so as to obtain DNA, respectively. Furthermore, it is desirable that extraction of DNA is carried out by using an automatic nucleic acid extraction device. A real-time PCR reagent for detecting bacteria, conditions and the primer constitution were the same as in Example 2.” left out

[3] = test system: bacterial 16S rRNA-derived gene; assay: Amplification curve and melting curve analysis by real-time PCR (contamination of non-specific nucleic acid); parameters: species or system Escherichia coli; conditions: real-time PCR 60 cycles; template not added
Procedure: In order to investigate contamination of non-specific nucleic acid in the above-mentioned thermostable DNA polymerase preparations, analyses of an amplification curve and a melting curve were carried out by using real-time PCR. FIGS. 5(A) and FIG. 5(B) show analysis of amplification curves. FIGS. 6(A) and FIG. 6(B) show analysis of melting curves. Furthermore, FIG. 5(A) and FIG. 6(A) are graphs showing analysis carried out by using thermostable DNA polymerase preparation produced by using AmpliTaq Gold LD as a host. FIG. 5(B) and FIG. 6(B) are graphs showing analysis carried out by using thermostable DNA polymerase preparation produced by using S. cerevisiae as a host. Solid lines show a case in which Escherichia coli was added as a template, and broken lines show a case in which a template was not added. As the real-time PCR reagent, ×10 Buffer was obtained by adding 10 μl of ultrapure water into a 1b tube of LightCycler FastStart DNA Master SYBR GreenI (Roche). In this tube, dNTPs and SYBR GreenI in addition to a buffer reagent optimized for the Taq DNA polymerase are contained. […]

Molecule | enrichment rate [1] [%] | drug sensitivity (comparison of amount of bacteria itself) [2] | contamination of non-specific nucleic acid in amplification curve and melting curve [3]
CC1(C)S[C@@H]2[C@H](NC(=O)[C@H](N)c3ccccc3)C(=O)N2[C@H]1C(=O)O [ampicillin] | 0 |  | 
Cc1nnc(SCC2=C(C(=O)O)N3C(=O)[C@@H](NC(=O)Cn4cnnn4)[C@H]3SC2)s1 [cefazolin] | 16 |  | 
CC[C@H]1OC(=O)[C@H](C)[C@@H](O[C@H]2C[C@@](C)(OC)[C@@H](O)[C@H](C)O2)[C@H](C)[C@@H](O[C@@H]2O[C@H](C)C[C@H](N(C)C)[C@H]2O)[C@](C)(O)C[C@@H](C)C(=O)[C@H](C)[C@@H](O)[C@]1(C)O [erythromycin] | 76 | sensitivity to EM was observed | 
AmpliTaq Gold LD: commercial thermostable DNA polymerase preparation (ABI), produced in bacteria and purified to minimize bacterial DNA |  |  | contamination of non-specific nucleic acid was observed
gentamicin |  | sensitivity to GM was not observed | 
